The values below come from publication PMC10691770, “Inhibition of Parkinson’s disease–related LRRK2 by type I and type II kinase inhibitors: Activity and structures” (Science Advances, 2023).

Series [1] concerns LRRK2(WT) and LRRK2(G2019S). The arrangement: method as in PMID 34515301. The settings on record: cited from earlier work.
Series [2] deals with T1, LRRK2^RCKW (Homo sapiens, UniProt Q5S007).
T1 construct: His6-Z (TEV site) (N, cleaved yes); made in house; host or cells: Sf9 insect cells (baculovirus)
T1 sequence (Q5S007 1327-2527): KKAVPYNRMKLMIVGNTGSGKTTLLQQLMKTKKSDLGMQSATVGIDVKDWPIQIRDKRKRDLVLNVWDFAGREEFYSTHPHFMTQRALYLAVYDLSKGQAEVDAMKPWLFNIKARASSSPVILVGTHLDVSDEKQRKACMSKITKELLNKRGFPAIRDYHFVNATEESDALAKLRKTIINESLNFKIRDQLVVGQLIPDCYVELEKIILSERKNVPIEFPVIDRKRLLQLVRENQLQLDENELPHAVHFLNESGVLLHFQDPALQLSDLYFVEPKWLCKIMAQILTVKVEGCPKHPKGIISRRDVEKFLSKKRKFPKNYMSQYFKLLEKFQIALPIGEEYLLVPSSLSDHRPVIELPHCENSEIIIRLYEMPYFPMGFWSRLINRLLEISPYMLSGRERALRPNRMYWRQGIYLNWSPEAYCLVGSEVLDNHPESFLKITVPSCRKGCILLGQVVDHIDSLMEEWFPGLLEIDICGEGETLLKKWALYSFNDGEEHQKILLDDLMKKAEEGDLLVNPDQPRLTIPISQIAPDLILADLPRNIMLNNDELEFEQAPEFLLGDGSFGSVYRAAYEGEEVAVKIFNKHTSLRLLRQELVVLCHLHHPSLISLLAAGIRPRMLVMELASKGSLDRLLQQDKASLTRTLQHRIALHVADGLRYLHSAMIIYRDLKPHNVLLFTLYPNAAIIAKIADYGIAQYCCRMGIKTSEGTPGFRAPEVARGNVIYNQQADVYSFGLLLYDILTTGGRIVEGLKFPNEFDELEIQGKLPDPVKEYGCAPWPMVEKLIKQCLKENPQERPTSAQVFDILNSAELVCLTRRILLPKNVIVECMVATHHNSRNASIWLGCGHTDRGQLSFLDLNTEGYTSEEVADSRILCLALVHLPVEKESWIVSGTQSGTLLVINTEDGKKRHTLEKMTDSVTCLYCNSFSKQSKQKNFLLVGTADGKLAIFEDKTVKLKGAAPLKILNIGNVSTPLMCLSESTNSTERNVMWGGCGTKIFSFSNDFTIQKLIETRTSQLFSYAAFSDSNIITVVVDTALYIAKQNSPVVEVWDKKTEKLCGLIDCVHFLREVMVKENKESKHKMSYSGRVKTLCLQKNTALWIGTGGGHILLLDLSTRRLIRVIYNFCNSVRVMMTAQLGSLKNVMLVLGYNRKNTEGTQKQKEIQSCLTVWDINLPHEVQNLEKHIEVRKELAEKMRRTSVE
The series can be described thus: MS-based kinase activity assay (Rab8A phosphorylation). The settings on record: 50 nM LRRK2^RCKW, 5 μM Rab8A, 1 mM ATP, ESI-MS readout. The format is biochemical.
Description: To compare the activity of the selected LRRK2 inhibitors, we developed a mass spectrometry (MS)–based kinase activity assay using an established endogenous substrate. We subjected the Rab8A GTPase domain (residues 6 to 176) to LRRK2^RCKW phosphorylation in the presence of varying concentrations of a given inhibitor and directly quantified the amount of phosphorylated Rab8A (pRab8A) by ESI-MS (fig. S1C).
To determine the IC50 values for a set of LRRK2 inhibitors, the phosphorylation of the LRRK2 substrate Rab8A was assessed by applying an MS-based activity assay. LRRK2^RCKW protein (50 nM) was mixed with 5 μM substrate and varying concentrations of the inhibitors in assay buffer [20 mM Hepes (pH 7.4), 150 mM NaCl, 0.5 mM TCEP, 20 μM GDP, 2.5 mM MgCl2, and 0.5% glycerol]. The reaction was started by adding 1 mM ATP and incubated at room temperature (RT). […] Data were acquired using the MassHunter LC/MS Data Acquisition software and analyzed using the BioConfirm vB.08.00 tool (both Agilent Technology) (https://www.agilent.com/en/product/software-informatics/mass-spectrometry-software, RRID: SCR_016657). The peak intensities of the unphosphorylated and phosphorylated Rab8A species were quantified and the relative kinase activity was calculated. […]

For series [3] the following is noted: LRRK2-IN-1 ref 18; HG-10-102-01 ref 19; cited from earlier work.
Series [4] relates to LRRK2^KW (G2019S). Kind of series: Differential scanning fluorimetry (DSF) thermal shift assay, G2019S mutant. The class given is binding. To be noted: inhibitor 10 μM.
Protocol: The assay was performed according to a previously established protocol ([37]). Briefly, a solution of 4 μM LRRK2^KW protein in assay buffer [20 mM Hepes (pH 7.4), 150 mM NaCl, 0.5 mM Tris (2-carboxyethyl) phosphine (TCEP), 20 μM GDP, 2.5 mM MgCl2, and 0.5% glycerol] was mixed 1:1000 with SYPRO Orange (Sigma-Aldrich). The inhibitors to be tested were added to a final concentration of 10 μM. Twenty microliters of each sample were placed in a 96-well plate and heated gradually from 25° to 95°C. Fluorescence was monitored using an MX3005P real-time PCR instrument (Stratagene) with excitation and emission filters set to 465 and 590 nm, respectively. Data were analyzed with the MxPro software.

Regarding `Cc1ccc(C(=O)Nc2ccc(CN3CCN(C)CC3)c(C(F)(F)F)c2)cc1C#Cc1cnc2[nH]ncc2c1` [GZD-824], the “IC50 for LRRK2(WT) lower than that for LRRK2(G2019S)” value in series [1] (in vitro phosphorylation assay) was ~ 4 fold.

As for `COc1cc(C(=O)N2CCC(N3CCN(C)CC3)CC2)ccc1Nc1ncc2c(n1)N(C)c1ccccc1C(=O)N2C` [LRRK2-IN-1], in series [2], the “IC50 (inhibition of Rab8A phosphorylation), in words” value is “high nanomolar range”. Moreover, the brain penetrance entry in series [3] is “low brain penetrance”.

Regarding `CNc1nc(Nc2ccc(C(=O)N3CCOCC3)cc2OC)ncc1Cl` [HG-10-102-01], the brain penetrance entry in series [3] is on record as “brain penetrant”.

Turning to `CC1CN(c2cc(-c3n[nH]c4ccc(OC5(C)CC5)cc34)ncn2)CC(C)O1` (stereo not drawn) [MLi-2], the “inhibition of LRRK2(G2019S) better than LRRK2(WT)” value in series [1] (purified full-length LRRK2, in vitro assay with a peptide kinase substrate) is listed as ~ 2 fold. Moreover, in series [4], the ΔTM was 18 K.
